Measurements taken from patent publication US6180767A, “Peptide nucleic acid conjugates” (Thomas Jefferson University, priority 1997, dated 2001).
Where no end group is shown, it is not given here.

Legend:
[1] = tested on: P6 cells (murine Balb/c3T3 cells transfected with human IGF1R gene); assay: Cellular uptake of fluoresceinated compounds, confocal fluorescence microscopy; type: cell-based; settings: 1 μM, 4 hours at 37° C., serum-free DMEM
Experimental: P6 cells, which are murine Balb/c3T3 cells transfected with human insulin-like growth factor receptor (IGF1R) gene, overexpress IGF1R. The cells were plated on LAB TEK 8 well tissue culture "CHAMBER SLIDES" from Nunc, Inc., Naperville, Ill. in 10% FBS/DMEM at a concentration of 20,000 cells/chamber. The cells were allowed to attach and grow for 24 hours in a humidified cell incubator with 5% CO2 at 37° C. The attached cells were then washed with serum-free DMEM and PBS. The cells were incubated for 4 hours at 37° C. with 1 μM of the fluoresceinated PNA-peptide (H-Gly-SEQ ID NO:5/SEQ ID NO: 1) or fluoresceinyl-PNA (H-Gly-SEQ ID NO:5-CONH2) in serum-free DMEM. Human Jurkat cells, which have very low copies of IGF1R (Lal et al., Leukemia Res. 17, 31-35, 1983) were used as a negative control. The Jurkat cells were grown in 10% FBS/RPMI. The Jurkat cells were treated in the same manner as the P6 cells, except that necessary modifications were made in handling the cells as they grow in suspension. […]
The fixed slides were analyzed under laser confocal fluorescence and phase contrast microscopy to observe the cellular uptake of the fluorescent oligomers. […] This is an advantage over conventional fluorescence microscopy, which cannot differentiate between signals inside and outside of the cells.

[2] = tested on: tumor cell lines dependent on IGFR1; settings: Pietrzkowski et al., Cancer Res. 52, 6447-6451, 1992; cited from earlier work
[3] = target: IGF1-R (Homo sapiens, UniProt P08069); settings: Pietrzkowski et al., Cancer Res. 52, 6447-6451, 1992; cited from earlier work
[4] = tested on: P6 cells; assay: Cellular uptake of [14C]PNA derivatives; type: cell-based, murine; settings: 1 μM 14C-labeled derivatives, FIG. 6
Experimental: (§1) Uptake studies with radiolabeled PNA derivatives were carried out. P6 or Jurkat cells above were plated in 12.5 cm^2 flasks and grown for two days to 50-80% confluence, on the order of 10^6 cells per flask. The medium was then removed and replaced with fresh medium containing 1 μM of the various [^14 C]PNA derivatives, pre-warmed to 37° C.; background cells received medium with no [^14 C]PNA derivatives. After incubation for various times, attached cells were washed directly in the flasks using four washes--once with fresh medium, once with PBS, once with high salt/low pH buffer, and once with PBS. […]
(§2) After the final wash, the cells were lysed in 1 ml of 1% SDS in H2 O, and the samples were processed for total protein measurement and liquid scintillation counting. 50 μl of the lysate was allocated for total protein measurement, and ^14 C activity in the remaining lysate was measured by liquid scintillation counting, from which background counts were subtracted. […]
(§3) Control samples of varying confluence were trypsinized following the last wash, resuspended in PBS for cell counting, and then lysed to obtain total protein values. […] The curve was used to estimate cell counts from the total protein measurements of treated cells, and radioactivity counts were used to calculate pmoles of oligonucleotide using the specific activity of each labeled oligonucleotide. […]

[5] = Serum stability of the PNA-peptide conjugate; type: in vitro ADME; settings: 10% fetal bovine serum/PBS, 12 hours and 24 hours, reverse phase HPLC
Experimental: The title conjugate was incubated in 10% fetal bovine serum/PBS for 12 hours and 24 hours. After the incubation, one volume of acetonitrile was added to precipitated protein, which was pelleted by centrifugation. Free conjugate in the supernatant was dried under vacuo. It was then analyzed by reverse phase HPLC as described above.

[6] = tested on: Jurkat cells; assay: Cellular uptake of [14C]PNA derivatives; type: cell-based, Human; settings: Jurkat cells (virtually no IGF1R), 1 μM 14C-labeled derivatives, FIG. 8
Experimental: as §1, §2, §3

[7] = tested on: Balb/c3T3 cells; assay: Cellular uptake of [14C]PNA derivatives; type: cell-based, murine; settings: Balb/c3T3 cells (low levels of IGF1R), 14C-labeled derivatives, FIG. 7

Sequence of IGF1-R (P08069 31-736 limits assumed): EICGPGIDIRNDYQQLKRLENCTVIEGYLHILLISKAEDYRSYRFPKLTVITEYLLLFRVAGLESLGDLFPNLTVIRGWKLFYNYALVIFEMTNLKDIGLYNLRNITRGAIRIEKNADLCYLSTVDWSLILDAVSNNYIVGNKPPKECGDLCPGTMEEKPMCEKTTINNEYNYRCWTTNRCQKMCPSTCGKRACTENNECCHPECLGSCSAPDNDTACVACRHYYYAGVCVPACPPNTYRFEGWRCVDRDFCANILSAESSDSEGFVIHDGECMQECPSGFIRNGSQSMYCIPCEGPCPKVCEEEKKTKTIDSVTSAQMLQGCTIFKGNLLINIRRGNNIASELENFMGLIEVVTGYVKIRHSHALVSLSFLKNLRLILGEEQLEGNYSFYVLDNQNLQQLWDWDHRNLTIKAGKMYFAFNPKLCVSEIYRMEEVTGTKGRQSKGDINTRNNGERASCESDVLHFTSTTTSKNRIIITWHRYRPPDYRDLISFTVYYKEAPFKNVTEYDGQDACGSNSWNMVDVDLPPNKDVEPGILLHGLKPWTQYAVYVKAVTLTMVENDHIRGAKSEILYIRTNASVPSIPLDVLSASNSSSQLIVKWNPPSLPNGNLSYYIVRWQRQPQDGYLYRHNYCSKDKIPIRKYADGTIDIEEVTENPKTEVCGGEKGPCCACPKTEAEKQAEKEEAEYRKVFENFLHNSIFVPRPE
Sequence of IGF1-R (P08069 741-1367 partner limits assumed): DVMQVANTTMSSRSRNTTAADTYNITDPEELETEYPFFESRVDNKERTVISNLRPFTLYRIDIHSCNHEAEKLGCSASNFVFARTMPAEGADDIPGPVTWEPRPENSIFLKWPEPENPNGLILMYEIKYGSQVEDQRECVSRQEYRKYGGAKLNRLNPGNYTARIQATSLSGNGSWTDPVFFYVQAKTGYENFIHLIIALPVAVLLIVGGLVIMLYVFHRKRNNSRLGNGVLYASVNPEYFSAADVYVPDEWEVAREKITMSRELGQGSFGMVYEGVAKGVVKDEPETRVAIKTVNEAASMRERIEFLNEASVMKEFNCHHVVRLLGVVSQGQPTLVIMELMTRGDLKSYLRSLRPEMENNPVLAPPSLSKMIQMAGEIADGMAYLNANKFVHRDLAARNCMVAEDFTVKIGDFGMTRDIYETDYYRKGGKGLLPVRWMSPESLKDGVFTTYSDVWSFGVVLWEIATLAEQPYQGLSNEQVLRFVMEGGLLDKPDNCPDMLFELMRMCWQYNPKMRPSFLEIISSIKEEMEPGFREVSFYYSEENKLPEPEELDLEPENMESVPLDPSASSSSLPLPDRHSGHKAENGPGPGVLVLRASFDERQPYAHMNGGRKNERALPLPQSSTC

## O=C1OC2(c3ccc(O)cc3Oc3cc(O)ccc32)c2ccccc21 [fluorescein]
[1]
  cellular uptake (fluorescence within the cells): absence of uptake

## GCSKAPKLPAALC (cysteine pairing not given here) [SEQ ID NO:4]
[2]
  inhibition of proliferation/growth of tumor cell lines: inhibits the proliferation of tumor cell lines dependent on IGFR1

## CSKAPKLPAAYC (cysteine pairing not given here) [SEQ ID NO:8]
[3]
  competition with the natural ligand for binding to IGF1-R: competes with the natural ligand for binding to IGF1-R
[2]
  inhibition of proliferation/growth of tumor cell lines: inhibits the growth of certain cancer cell lines

## H-Gly-CCGCTTCCTTTC-Gly-Gly-Gly-Gly-D-Cys-D-Ser-D-Lys-D-Cys-NH2 [title PNA-peptide conjugate]
[4]
  uptake relative to control PNA or control PNA-peptide: five-fold more uptake
[5]
  stability of the conjugate in serum: stability of the conjugate was confirmed
[6]
  uptake relative to the controls: little preferential uptake
[7]
  uptake relative to the controls: four-fold excess
